Data taken from patent US7345051B2, “Mucin synthesis inhibitors” (Genaera Corporation, priority 2000, dated 2008).
“Also recorded” adds a separate entry of the source.

What was measured:
H292 clone 15 cells = settings: 48 hours compound, Alamar Blue 2 hours; Average of 3 experiments
[1] = system: MUC5AC production by H292 clone 15 cells overexpressing hCLCA1; assay: ELLA of MUC5AC in conditioned media of H292 clone 15 cells; format: cell-based, human; settings: Average of 3 experiments
Method: Conditioned media were collected and MUC5AC (the major secretory mucin in lungs) content was determined by ELLA measurement as described below. 96 well microtiter plates were coated with a mouse monoclonal antibody against human MUC5AC (1-13M1, NeoMarkers), then incubated with test conditioned media. Bound MUC5AC was detected by horseradish peroxidase-conjugated soybean lectin which has a high affinity towards highly-glycosylated proteins such as MUC5AC. Conversion of peroxidase substrate TMB (Tetramethylbenzidine Base) was quantified by reading at 450 nm. O.D. (optical density) readings were plotted against concentrations of compounds.

activated Caco2 cells = settings: Caco-2
[2] = system: MUC5A/C secretion in hCLCA1 expressing H292 cells; assay: MUC5A/C secretion in hCLCA1 expressing H292 cells (ELLA); format: cell-based, human; design: key to ELLA: + = inhibition; − = no inhibition; settings: for ELLA: Table 2, mucin production
Muc5b = assay: Inhibition of Muc5b expression; format: cell-based; design: key: + = inhibition; − = no inhibition; settings: Table 2
Method: The effects of talniflumate derivatives on mucin production were also assayed for changes in ELLA and IC50 (Table 2) as described in the methods above.

[3] = system: NCI-H292/hICACC-1 (AAF 15) cells; assay: AB/PAS staining of mucous glycoconjugates in NCI-H292 cells over-expressing hICACC-1; format: cell-based, human; settings: 3 days
Method: NCI-H292 cells, a human pulmonary mucoepidermoid carcinoma cell line, were purchased from the American Type Culture Collection (Manassas Va.) and cultured in RPMI1640 medium supplemented with 10% FBS and 1% penicillin/streptomycin (Gibco/BRL). The cells were grown in a humidified, air-containing incubator, supplemented with 5% CO2 at 37° C. Stable NCI-H292 cell lines over-expressing hICACC-1 were established by transfection of pcDNA3-hICACC-1 using a Fujin Transfection kit according to the manufacture's instruction (Boehringer-Mannheim). A control cell line was produced, NCI-H292/ctl, by the transfection of pcDNA3 (ctl) into the NCI-H292 cell line using the same procedure. Expression of the hICACC-1 gene was confirmed for the pcDNA3-hICACC-1 transfectent by Northern analysis.
For the determination of mucous glycoconjugate production, NCI-H292/ctl and NCI-H292/hICACC-1 (AAF 15) cells were cultured in 24-well plates for 3 days. Cells were then fixed with Formalin and mucous glycoconjugates were visualized by AB/PAS staining (Sigma). […] For chloride channel blockage studies, cells were cultured in the presence of niflumic acid (NFA) (Sigma) at 100 μM concentration, mefanamic acid (MFA) at 125 or 250 μM or talniflumate at 12.5, 25 or 50 μM, or media alone.

IL9 transgenic mice = assay: Mucin production in lungs of IL9 transgenic mice, intra-tracheal treatment; format: in vivo; settings: NFA (100 μg) IT once daily for three days
Method: Certified virus-free male and female IL9 transgenic mice (IL9TG5-FVB/N) 5-6 weeks of age were bred in our laboratories. Male and female FVB/N mice 5-6 weeks of age were purchased from Jackson Laboratories (Bar Harbor Me.). Animals were housed in high-efficiency, particulate filtered air and allowed free access to food and water for 3 to 7 days prior to experimental manipulation. The animal facilities were maintained at 22° C. and the light:dark cycle was automatically controlled (10:14 hour light:dark).
Animals were phenotyped, naïve, or 24 hrs after receiving intra-tracheal (IT) shame (vehicle) treatment, or drugs in the same vehicle as was used in identically treated controls. Mice were treated IT once daily for three days. NFA (100 μg) or antibody to IL-9 were administered in PBS IT. […] The up-regulation of mucus production in the IL9 transgenic is specifically associated with increased steady-state mRNA levels of MUC2 and MUC5AC as shown by RT-PCR (FIG. 9).

[4] = system: activated Caco2 cell line; assay: Viability of activated Caco2 cells treated with NFA; format: cell-based; settings: even higher concentrations of NFA
[5] = system: mice sensitized by nasal aspiration of Aspergillus fumigatus antigen; format: in vivo
activated LHL4 cells = assay: Eotaxin production by activated LHL4 cells (ELISA); format: cell-based; settings: increasing concentrations
Method: Activated LHL4 cells that express and secrete eotaxin have been produced and used to test for inhibitors of eotaxin production. These cells were assayed in vitro for eotaxin by an ELISA technique well known in the art (R&D Systems).

[6] = system: CF mice (CF knock-out mice and CF ΔF508 mice); settings: po, 100 mg/kg
MUC2 transcription = assay: MUC2 promoter luciferase reporter, lipoteichoic acid induction; format: cell-based; settings: LTA from S. aureus; FIG. 22
Method: MUC2 transcription was monitored as described in Li et al. (1998) Proc. Natl. Acad. Sci., USA, Vol. 95, pp. 5718-5723. Briefly, an epithelial cell line was transfected with a reporter construct containing the promoter region from the MUC2 gene cloned upstream of a luciferase reporter gene. Transfected cells were treated with serum free media (SFM) alone or, as indicated, containing lipoteichoic acid from S. aureus bacteria (LTA), adenosine (aden), or talniflumate (MSI). Cells were then lysed and luciferase enzyme activity in the lysates was measured (RLU). Talniflumate modulated the lipoteichoic acid induction of MUC2 (see FIG. 22). This is also an appropriate model for CF.

[7] = system: B6D2F1 mice sensitized with Aspergillus fumigatus; assay: Murine asthma model, Aspergillus fumigatus sensitization, Talniflumate containing mouse chow; format: in vivo; settings: oral
[8] = system: human chloride channel hICACC-1; assay: Patch clamp chloride current, NCI-H292 cell expressing hICACC-1; format: cell-based; settings: 5 micromolar talniflumate; 2 μM ionomycin and 2 mM calcium
Method: An NCI-H292 cell transfected with a plasmid expressing the human chloride channel hICACC-1 was patch clamped and chloride current (I) was measured over a range of voltages (V). Substantial chloride current was invoked by the addition of 2 μM ionomycin and 2 mM calcium (circles) compared to baseline (squares), indicating activation of hICACC-1.

[9] = biological target: T1, murine chloride channel, mICACC-1 (Mus musculus, UniProt Q9D7Z6); assay: Patch clamp chloride current, HEK293 cell expressing mICACC-1; format: cell-based; settings: for Chloride Current (nA/pF): + ionomycin + Ca
T1 construct: expressed in transfected cells; host or cells: HEK293
T1 sequence (Q9D7Z6 22-913): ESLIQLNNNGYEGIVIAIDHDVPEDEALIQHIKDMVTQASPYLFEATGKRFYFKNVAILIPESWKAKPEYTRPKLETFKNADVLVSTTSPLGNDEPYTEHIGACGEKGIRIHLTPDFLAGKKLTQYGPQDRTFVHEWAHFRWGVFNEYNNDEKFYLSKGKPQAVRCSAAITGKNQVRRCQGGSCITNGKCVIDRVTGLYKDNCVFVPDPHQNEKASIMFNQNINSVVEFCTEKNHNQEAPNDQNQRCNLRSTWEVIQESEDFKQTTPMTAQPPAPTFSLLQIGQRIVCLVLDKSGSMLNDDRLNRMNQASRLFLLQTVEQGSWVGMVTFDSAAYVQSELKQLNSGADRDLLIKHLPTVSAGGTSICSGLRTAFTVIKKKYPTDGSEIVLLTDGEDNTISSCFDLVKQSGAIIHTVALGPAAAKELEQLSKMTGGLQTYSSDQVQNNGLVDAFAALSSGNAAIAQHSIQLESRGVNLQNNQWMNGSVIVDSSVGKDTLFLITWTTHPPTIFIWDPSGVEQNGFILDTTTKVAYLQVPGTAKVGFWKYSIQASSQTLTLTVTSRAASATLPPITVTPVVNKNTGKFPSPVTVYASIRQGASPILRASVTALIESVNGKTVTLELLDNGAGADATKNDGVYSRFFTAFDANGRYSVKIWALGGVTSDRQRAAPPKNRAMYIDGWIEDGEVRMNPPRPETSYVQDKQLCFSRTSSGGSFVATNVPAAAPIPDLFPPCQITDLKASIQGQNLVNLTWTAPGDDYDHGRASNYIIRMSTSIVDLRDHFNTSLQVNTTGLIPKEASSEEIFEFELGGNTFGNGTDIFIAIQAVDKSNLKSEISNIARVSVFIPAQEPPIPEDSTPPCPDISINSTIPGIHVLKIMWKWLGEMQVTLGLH
Method: A HEK293 cell transfected with a plasmid expressing a murine chloride channel, mICACC-1, was patch clamped and chloride current was measured over a range of voltages (V, left column) and the results are shown in Table 3 below. Each row lists currents invoked at a particular positive voltage in the absence (−) or presence (+) of ionomycin and calcium, and in the presence of an indicated concentration of diclofenac (μM). Substantial current was invoked by the addition of 2 μM ionomycin and 2 mM calcium-compare the first two columns-indicating activation of mICACC-1 by the ionomycin/calcium treatment. For example, at 100 mV of positive voltage, the chloride current was increased from 39 nA/pF to 105 nA/pF.

O=C1OC(CC(=O)c2cccnc2Oc2cccc(Br)c2)c2ccccc21 (stereo not drawn) [Compound 14]
Est. LD50 (μM)(alamar Blue)* (H292 clone 15 cells): 16 µM

O=C1OC(CC(=O)c2cccnc2Sc2ccccc2Cl)c2ccccc21 (stereo not drawn) [Compound 15]
Est. LD50 (μM)(alamar Blue)* (H292 clone 15 cells): 15 µM
IC50 ([1]; Homo sapiens, NCI-H292, 48 hours): 2.5 µM

O=C(O)c1ccccc1Nc1cccc(C(F)(F)F)c1 [Flufenamate]
Mucin production by activated Caco2 cells (activated Caco2 cells): inhibited

COC(=O)c1cccnc1Nc1cccc(C(F)(F)F)c1 [MSI 2213, Niflumic acid methyl ester]
ELLA [2]: −

O=C1OC(CC(=O)c2cccnc2Nc2cccc(C(F)(F)F)c2)c2ccccc21 (stereo not drawn) [MSI 2216]
IC50 ([2]; Table 2, ELLA): 5000 nM
ELLA [2]: +
Est. LD50 (μM)(alamar Blue)* (H292 clone 15 cells): 32 µM
Inhibition of Muc5b Expression (Muc5b): +
IC50 ([1]; 48 hours): 3 µM

Cc1ccc(Cl)c(Nc2ccccc2C(=O)O)c1Cl [Meclofenamate]
Mucin production by activated Caco2 cells (activated Caco2 cells): partially

Cc1cccc(Nc2ccccc2C(=O)O)c1C [Mefenamate]
PAS positive staining muco-glycoconjugates compared with untreated cells ([3]; MFA at 125 or 250 μM): significantly fewer positive staining muco-glycoconjugates
Mucin production by activated Caco2 cells (activated Caco2 cells): partially

O=C(O)c1cccnc1Nc1cccc(C(F)(F)F)c1 [NFA, niflumic acid]
mucin production in the IL9 transgenic lungs (IL9 transgenic mice): decreased mucin production
viability [4]: not affected; also recorded: did not effect their viability
PAS positive staining muco-glycoconjugates compared with untreated cells ([3]; NFA at 100 μM): significantly fewer positive staining muco-glycoconjugates
serum IgE levels ([5]; 100 μg of NFA intra-tracheal, days 0-21, vs PBS): no effect
BAL lung eosinophilia ([5]; mouse, in vivo): suppress; also recorded: reduces antigen-induced lung eosinophilia in vivo
antigen-induced airway hyperresponsiveness ([5]; mouse, in vivo): suppress; also recorded: suppresses antigen-induced airway hyperresponsiveness
eotaxin production (activated LHL4 cells): Significant inhibition; also recorded: blocks epithelial activation including chemokine production

COc1ccc2cc([C@H](C)C(=O)O)ccc2c1 [Naproxen]
Mucin production by activated Caco2 cells (activated Caco2 cells): ineffective

CC1=C(CC(=O)O)c2cc(F)ccc2/C1=C\c1ccc([S+](C)[O-])cc1 (stereo not drawn) [Sulindac]
Mucin production by activated Caco2 cells (activated Caco2 cells): ineffective

O=C1OC(OC(=O)c2cccnc2Nc2cccc(C(F)(F)F)c2)c2ccccc21 (stereo not drawn) [Talniflumate, talniflumate]
body weight gained [6]: 8-12%
PAS positive staining muco-glycoconjugates compared with untreated cells ([3]; talniflumate at 12.5, 25 or 50 μM): significantly fewer positive staining muco-glycoconjugates
lipoteichoic acid induction of MUC2 (luciferase, RLU) (MUC2 transcription): modulated
lung eosinophilia, number of eosinophilic cells by bronchoalveolar lavage ([7]; Talniflumate coated chow, sensitized mice vs standard chow): reduced the number of eosinophilic cells; also recorded: inhibition of lung eosinophilia
mucin staining (PAS) in lung ([7]; Talniflumate containing chow ad lib, Asp-sens mice vs regular chow): reduced mucin staining; also recorded: inhibition of mucin over production
Est. LD50 (μM)(alamar Blue)* (H292 clone 15 cells): 108 µM
chloride current at positive voltage [8]: reduction in chloride current

O=C(O)Cc1ccccc1Nc1c(Cl)cccc1Cl [diclofenac]
Chloride Current (nA/pF) ([9]; 0 mV, diclofenac 5 μM): 20 nA/pF
Chloride Current (nA/pF) ([9]; 0 mV, diclofenac 20 μM): 20 nA/pF
Chloride Current (nA/pF) ([9]; 0 mV, diclofenac 50 μM): 19 nA/pF
Chloride Current (nA/pF) ([9]; 20 mV, diclofenac 5 μM): 36 nA/pF
Chloride Current (nA/pF) ([9]; 20 mV, diclofenac 20 μM): 34 nA/pF
Chloride Current (nA/pF) ([9]; 20 mV, diclofenac 50 μM): 33 nA/pF
Chloride Current (nA/pF) ([9]; 40 mV, diclofenac 5 μM): 53 nA/pF
Chloride Current (nA/pF) ([9]; 40 mV, diclofenac 20 μM): 51 nA/pF
Chloride Current (nA/pF) ([9]; 40 mV, diclofenac 50 μM): 48 nA/pF
Chloride Current (nA/pF) ([9]; 60 mV, diclofenac 5 μM): 72 nA/pF
Chloride Current (nA/pF) ([9]; 60 mV, diclofenac 20 μM): 69 nA/pF
Chloride Current (nA/pF) ([9]; 60 mV, diclofenac 50 μM): 66 nA/pF
Chloride Current (nA/pF) ([9]; 80 mV, diclofenac 5 μM): 92 nA/pF
Chloride Current (nA/pF) ([9]; 80 mV, diclofenac 20 μM): 88 nA/pF
Chloride Current (nA/pF) ([9]; 80 mV, diclofenac 50 μM): 85 nA/pF
Chloride Current (nA/pF) ([9]; 100 mV, diclofenac 5 μM): 115 nA/pF
Chloride Current (nA/pF) ([9]; 100 mV, diclofenac 20 μM): 109 nA/pF
Chloride Current (nA/pF) ([9]; 100 mV, diclofenac 50 μM): 106 nA/pF
inhibition of channel activity ([9]; diclofenac 5 μM to 50 μM, 2 μM ionomycin and 2 mM calcium): No inhibition
